Results as given in patent US20100167396A1, “Application of Anti-Apoptotic Gene Expression in Mammalian Cells for Perfusion Culture” (BAYER HEALTHCARE LLC, priority 2006, published 2010).

Columns and labels:
[1] = tested on: blank vector and parental BHK-FVIII cell lines; assay: Thapsigargin-induced caspase-3 activation, control cell lines; format: cell-based, hamster; settings: 24 hours after 2 μM thapsigargin treatment
Protocol: (§1) Cells were seeded at a density of 5×10^6 cells/mL in shake flasks and cultured in an incubator maintained at 37° C. and 5% CO2. The culture was examined every 24 hours for viability, caspase-3 activation, Annexin-V binding assay, and nutrient measurements. Cell count was performed by trypan blue exclusion assay using a Cedex cell counting device (Innovatis, Bielefeld, Germany). Caspase-3 activation was detected using a Guava PCA system (Guava Technologies, Hayward, Calif.). Cells were washed with cold PBS, fixed with Cytofix/Cytoperm solution (BD Pharmingen, San Diego, Calif.), and then stained with PE-conjugated monoclonal active caspase-3 antibody (BD Pharmingen) before analyzing with the Guava system. For the Annexin-V binding assay, cells were collected and incubated using a Guava Nexin kit and analyzed on the Guava PCA system according to manufacturer's instructions (Guava Technologies). Levels of glutamine, glutamate, glucose, and lactate were measured by the YSI analyzer (YSI Life Sciences, Yellow Springs, Ohio).
(§2) The engineered cell lines Aven-E1B-19K #22 and E1B-19K #6, in addition to the blank vector and the parental cell lines were treated with thapsigargin in shake flask culture. […] To examine apoptosis induction, caspase-3 activation was evaluated 24 hours after thapsigargin treatment.

[2] = tested on: E1B-19K #6 and Aven-E1B-19K #22 BHK-FVIII cell lines; assay: Thapsigargin-induced caspase-3 activation, engineered cell lines; format: cell-based, hamster; settings: 24 hours after 2 μM thapsigargin treatment, anti-apoptosis engineered cell lines
Protocol: as §1, §2

With `C/C=C(/C)C(=O)O[C@H]1C(C)=C2[C@H]([C@@H]1OC(=O)CCCCCCC)[C@@](C)(OC(C)=O)C[C@H](OC(=O)CCC)[C@@]1(O)[C@H]2OC(=O)[C@@]1(C)O` [thapsigargin] the “percentage of caspase-3 activated cells” value [1] was “Approximately 20%” and the “percentage of caspase-3 activated cells” value [2] was “less than 5%”.
